Test results: ChEMBL document CHEMBL1921737, “Utilizing G-quadruplex formation to target 8-oxoguanine in telomeric sequences” (Bioorg Med Chem Lett, 2011)
Active and inactive are the calls of the source. No cut-off for these calls is given here.

What was measured:
Type in all cases: nucleic-acid assay
Nucleic Acid [1] = assay: Induction of telomeric [32P] G-quadruplex DNA 5'-d(GOxodGTTAGGGTTAGGGTTAGGGTTAGGG) adduct formation at 4 uM for 30 mins in presence of Na2IrCl6 by PAGE method
Nucleic Acid [2] = assay: Binding affinity to telomeric G-quadruplex DNA 5'-d(AGGGTTAGGGTTAGGGTTAGGG) by UV titration method
Nucleic Acid [3] = assay: Binding affinity to telomeric G-quadruplex DNA 5'-d(AGGGTTAGGGTTAGGGTTAGGG) assessed as increase in melting temperature at 2 uM by UV thermal denaturation analysis
Nucleic Acid [4] = assay: Binding affinity to telomeric G-quadruplex DNA 5'-d(AGGGTTAGGGTTAGGGTTAGGG) at 1 to 10 uM by CD titration method in presence of 100 mM of KCl
Nucleic Acid [5] = assay: Binding affinity to telomeric G-quadruplex DNA 5'-d(GOxodGTTAGGGTTAGGGTTAGGGTTAGGG) at 1 to 10 uM by CD titration method in presence of 100 mM of KCl
Nucleic Acid [6] = assay: Binding affinity to telomeric G-quadruplex DNA 5'-d(AOxodGGTTAGGGTTAGGGTTAGGGTGTT) at 1 to 10 uM by CD titration method in presence of 100 mM of KCl
Nucleic Acid [7] = assay: Binding affinity to telomeric G-quadruplex DNA 5'-d(AGGGTTAGOxodGGTTAGGGTTAGGGTGTT) at 1 to 10 uM by CD titration method in presence of 100 mM of KCl
Nucleic Acid [8] = assay: Binding affinity to telomeric G-quadruplex DNA 5'[32P]-d(AGGGTTAGGGTTAOxodGGGGTTAGGGTGTT) at 1 to 10 uM by CD titration method in presence of 100 mM of KCl
Nucleic Acid [9] = assay: Binding affinity to telomeric Duplex DNA 5'-d(CGTTCAGAGCCGOxodGTTACGTCCTTCAT) 3'-d(CGAAGTCTGGCCAATGCAGGAAGTA) at 1 to 10 uM by CD titration method in presence of 100 mM of KCl
Nucleic Acid [10] = assay: Induction of telomeric [32P] G-quadruplex DNA 5'-d(GOxodGTTAGGGTTAGGGTTAGGGTTAGGG) assessed as adducts decomposition half life at 4 uM for 30 mins in presence of Na2IrCl6 by PAGE method
Nucleic Acid [11] = assay: Induction of telomeric [32P] G-quadruplex DNA 5'-d(AOxodGGTTAGGGTTAGGGTTAGGGTGTT) assessed as adducts decomposition half life at 4 uM for 30 mins in presence of Na2IrCl6 by PAGE method
Nucleic Acid [12] = assay: Induction of telomeric [32P] G-quadruplex DNA 5'-d(AOxodGGTTAGGGTTAGGGTTAGGGTGTT) adduct formation at 4 uM for 30 mins in presence of Na2IrCl6 by PAGE method
Nucleic Acid [13] = assay: Induction of telomeric [32P] G-quadruplex DNA 5'-d(AGGGTTAGOxodGGTTAGGGTTAGGGTGTT) adduct formation at 4 uM for 30 mins in presence of Na2IrCl6 by PAGE method
Nucleic Acid [14] = assay: Induction of telomeric [32P] G-quadruplex DNA 5'-d(AGGGTTAGGGTTAOxodGGGGTTAGGGTGTT) adduct formation at 4 uM for 30 mins in presence of Na2IrCl6 by PAGE method
Nucleic Acid [15] = assay: Induction of telomeric [32P] Duplex DNA 5'-d(CGTTCAGAGCCGOxodGTTACGTCCTTCAT) 3'-d(CGAAGTCTGGCCAATGCAGGAAGTA) adduct formation at 4 uM for 30 mins in presence of Na2IrCl6 by PAGE method

Activity (Nucleic Acid [1]) | Kd (Nucleic Acid [2]) | Tm (Nucleic Acid [3]) | Activity (Nucleic Acid [4]) | Activity (Nucleic Acid [5]) | Activity (Nucleic Acid [6]) | Activity (Nucleic Acid [7]) | Activity (Nucleic Acid [8]) | Activity (Nucleic Acid [9]) | T1/2 (Nucleic Acid [10]) | T1/2 (Nucleic Acid [11]) | Activity (Nucleic Acid [12]) | Activity (Nucleic Acid [13]) | Activity (Nucleic Acid [14]) | Activity (Nucleic Acid [15]) | Structure (SMILES)
Active | – | – | – | – | – | – | – | – | – | – | – | – | – | – | NCCCNCCCCNCCCN1C(=O)c2ccc3c4ccc5c6c(ccc(c7ccc(c2c37)C1=O)c64)C(=O)N(CCCNCCCCNCCCN)C5=O
Active | 860 nM | 5.2 °C | Active | Active | Active | inactive | Active | Active | 36 h | 36 h | Active | inactive | inactive | Active | NCC(CN)CCC(=O)NCCCN1C(=O)c2ccc3c4ccc5c6c(ccc(c7ccc(c2c37)C1=O)c64)C(=O)N(CCCNC(=O)CCC(CN)CN)C5=O
